Source: US10689383B2, “Optionally fused heterocyclyl-substituted derivatives of pyrimidine useful for the treatment of inflammatory, metabolic, oncologic and autoimmune diseases” (NUEVOLUTION A/S, priority 2014, dated 2020)

How the values were obtained:
[1] = molecular target: T1, yeast Gal4-DNA binding domain fused to the ligand binding domain of human RORγ (Homo sapiens, UniProt P51449); assay: RORγ Reporter Assay (Gal4); type: cell-based; conditions: values given as lower bounds of ranges; for Gal4 activity range @ 0.1 μM (% inhibition): RORγ Reporter Assay (Gal4) at 0.1 μM; for Gal4 activity range @ 1 μM (% inhibition): RORγ Reporter Assay (Gal4) at 1 μM
T1 construct: host or cells: HEK293t
T1 sequence (P51449 269-508 limits assumed): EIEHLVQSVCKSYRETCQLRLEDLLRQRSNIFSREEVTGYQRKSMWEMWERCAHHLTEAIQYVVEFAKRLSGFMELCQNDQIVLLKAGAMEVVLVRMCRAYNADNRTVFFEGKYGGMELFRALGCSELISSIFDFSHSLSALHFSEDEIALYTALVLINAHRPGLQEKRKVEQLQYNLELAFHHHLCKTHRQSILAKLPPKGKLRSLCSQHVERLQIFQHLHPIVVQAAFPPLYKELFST
Summary of the method: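 Compound at final 1,000 or 100 nM (0.1% DMSO, triplicate) was added to the transfected HEK293t cells carrying a Gal4-UAS luciferase reporter for 24 h at 37 °C, 10% charcoal-stripped FBS. Activity reduction expressed as percent of vehicle-only luciferase signal.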

[2] = molecular target: T2, human RORγt (Ligand Binding Domain) (Homo sapiens, UniProt P51449); assay: Fluorescence Polarization (FP) Assay; conditions: Fluorescence Polarization (FP) Assay; values given as upper bounds of activity ranges; read-out: FP activity range
T2 construct: purchased Crelux (Planegg, Germany) batch no PC5032-1
T2 sequence (P51449 269-508 limits assumed): T1 sequence (P51449 269-508 limits assumed)
Summary of the method: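 Binding to the ligand pocket followed by fluorescence polarization with a TAMRA-tagged RORγt ligand probe of 910 g/mole. Negative control wells received DMSO only.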

O=C(O)Cc1ccc(CNc2ncnc(N3CCOCC3c3ccccc3)c2F)cc1 (stereo not drawn) [Example 276, 2-[4-[[[5-fluoro-6-(3-phenylmorpholin-4-yl)pyrimidin-4-yl]amino]methyl]phenyl]acetic acid]
Gal4 activity range @ 0.1 μM (% inhibition) [1]: >0 % inhibition
Gal4 activity range @ 1 μM (% inhibition) [1]: >20 % inhibition
IC50 [2]: < 2000 nM

NC(=O)Cc1ccc(CNc2ncnc(N3CC(=O)CC3c3ccc(C(F)(F)F)cc3)c2F)cc1 (stereo not drawn) [Example 280, 2-[4-[[[5-fluoro-6-[4-oxo-2-[4-(trifluoromethyl)phenyl]pyrrolidin-1-yl]pyrimidin-4-yl]amino]methyl]phenyl]acetamide]
Gal4 activity range @ 0.1 μM (% inhibition) [1]: >0 % inhibition
Gal4 activity range @ 1 μM (% inhibition) [1]: >20 % inhibition
IC50 [2]: < 500 nM

O=C(O)Cc1ccc(CNc2ncnc(N3CCOCC3c3ccccc3)c2F)s1 (stereo not drawn) [Example 282, 2-[5-[[[5-fluoro-6-(3-phenylmorpholin-4-yl)pyrimidin-4-yl]amino]methyl]-2-thienyl]acetic acid]
Gal4 activity range @ 0.1 μM (% inhibition) [1]: >0 % inhibition
Gal4 activity range @ 1 μM (% inhibition) [1]: >0 % inhibition
IC50 [2]: < 10000 nM

NC(=O)Cc1ccc(CNc2ncnc(N3CCOCC3c3ccccc3)c2F)s1 (stereo not drawn) [Example 283, 2-[5-[[[5-fluoro-6-(3-phenylmorpholin-4-yl)pyrimidin-4-yl]amino]methyl]-2-thienyl]acetamide]
Gal4 activity range @ 0.1 μM (% inhibition) [1]: >0 % inhibition
Gal4 activity range @ 1 μM (% inhibition) [1]: >20 % inhibition
IC50 [2]: < 1000 nM

NC(=O)Cc1ccc(Cn2ccc3c(N4CCOCC4c4ccccc4)ncnc32)cc1 (stereo not drawn) [Example 284, 2-[4-[[4-(3-phenylmorpholin-4-yl)pyrrolo[2,3-d]pyrimidin-7-yl]methyl]phenyl]acetamide]
Gal4 activity range @ 0.1 μM (% inhibition) [1]: >20 % inhibition
Gal4 activity range @ 1 μM (% inhibition) [1]: >50 % inhibition
IC50 [2]: < 500 nM

O=S(=O)(CC(F)(F)F)N[C@H]1CC[C@H](CNc2ncnc(N3CCOC[C@@H]3c3ccc(OC(F)(F)F)cc3)c2F)CC1 [Example 285, 2,2,2-trifluoro-N-[4-[[[5-fluoro-6-[(3S)-3-[4-(trifluoromethoxy)phenyl]morpholin-4-yl]pyrimidin-4-yl]amino]methyl]cyclohexyl]ethane sulfonamide]
Gal4 activity range @ 0.1 μM (% inhibition) [1]: >0 % inhibition
Gal4 activity range @ 1 μM (% inhibition) [1]: >20 % inhibition
IC50 [2]: < 500 nM

CNC(=O)C1(CNc2ncnc(N3CCOC[C@@H]3c3ccc(C(F)(F)F)cc3)c2F)CCOCC1 [Example 286, 4-[[[5-fluoro-6-[(3S)-3-[4-(trifluoromethyl)phenyl]morpholin-4-yl]pyrimidin-4-yl]amino]methyl]-N-methyl-tetrahydropyran-4-carboxamide]
Gal4 activity range @ 0.1 μM (% inhibition) [1]: >20 % inhibition
Gal4 activity range @ 1 μM (% inhibition) [1]: >20 % inhibition
IC50 [2]: < 2000 nM

N#CC[C@H]1CC[C@H](CNc2ncnc(N3CCOC[C@@H]3c3ccc(C(F)(F)F)cc3)c2F)CC1 [Example 287, 2-[4-[[[5-fluoro-6-[(3S)-3-[4-(trifluoromethyl)phenyl]morpholin-4-yl]pyrimidin-4-yl]amino]methyl]cyclohexyl] acetonitrile]
Gal4 activity range @ 0.1 μM (% inhibition) [1]: >50 % inhibition
Gal4 activity range @ 1 μM (% inhibition) [1]: >80 % inhibition
IC50 [2]: < 500 nM

Fc1c(NC[C@H]2CC[C@H](Cc3nnn[nH]3)CC2)ncnc1N1CCOC[C@@H]1c1ccc(C(F)(F)F)cc1 [Example 288, 5-fluoro-N-[[4-(1H-tetrazol-5-ylmethyl)cyclohexyl]methyl]-6-[(3S)-3-[4-(trifluoromethyl)phenyl]morpholin-4-yl]pyrimidin-4-amine]
Gal4 activity range @ 0.1 μM (% inhibition) [1]: >80 % inhibition
Gal4 activity range @ 1 μM (% inhibition) [1]: >80 % inhibition
IC50 [2]: < 500 nM

CS(=O)(=O)N1CCC(Cn2ccc3c(N4CCOC[C@@H]4c4ccc(OC(F)(F)F)cc4)ncnc32)CC1 [Example 290, (3S)-4-[7-[(1-methylsulfonyl-4-piperidyl)methyl]pyrrolo[2,3-d]pyrimidin-4-yl]-3-[4-(trifluoromethoxy)phenyl] morpholine]
Gal4 activity range @ 0.1 μM (% inhibition) [1]: >50 % inhibition
Gal4 activity range @ 1 μM (% inhibition) [1]: >80 % inhibition
IC50 [2]: < 500 nM

O=S(=O)(Nc1ccc(CNc2ncnc(N3CCOC[C@@H]3c3ccc(C(F)(F)F)cc3)c2F)cc1)C(F)(F)F [Example 291, 1,1,1-trifluoro-N-[4-[[[5-fluoro-6-[(3S)-3-[4-(trifluoromethyl)phenyl]morpholin-4-yl]pyrimidin-4-yl]amino]methyl]phenyl] methanesulfonamide]
Gal4 activity range @ 0.1 μM (% inhibition) [1]: >0 % inhibition
Gal4 activity range @ 1 μM (% inhibition) [1]: >50 % inhibition
IC50 [2]: < 1000 nM

N#CNC(=O)Cc1ccc(CNc2ncnc(N3CCOCC3c3ccc(C(F)(F)F)cc3)c2F)cc1 (stereo not drawn) [Example 292, N-cyano-2-[4-[[[5-fluoro-6-[3-[4-(trifluoromethyl)phenyl]morpholin-4-yl]pyrimidin-4-yl]amino]methyl]phenyl]acetamide]
Gal4 activity range @ 0.1 μM (% inhibition) [1]: >0 % inhibition
Gal4 activity range @ 1 μM (% inhibition) [1]: >20 % inhibition
IC50 [2]: < 500 nM

CC1(CNc2ncnc(N3CCOC[C@@H]3c3ccc(C(F)(F)F)cc3)c2F)CCCCC1O (stereo partly drawn) [Example 295, 2-[[[5-fluoro-6-[(3S)-3-[4-(trifluoromethyl)phenyl]morpholin-4-yl]pyrimidin-4-yl]amino]methyl]-2-methyl-cyclohexanol]
Gal4 activity range @ 0.1 μM (% inhibition) [1]: >20 % inhibition
Gal4 activity range @ 1 μM (% inhibition) [1]: >80 % inhibition
IC50 [2]: < 500 nM

NC(=O)Cc1ccc(CNc2ncnc(N3CCCC3c3ccc4c(c3)OCO4)c2F)cc1 (stereo not drawn) [Example 299, 2-[4-[[[6-[2-(1,3-benzodioxol-5-yl)pyrrolidin-1-yl]-5-fluoro-pyrimidin-4-yl]amino]methyl]phenyl]acetamide]
Gal4 activity range @ 0.1 μM (% inhibition) [1]: >0 % inhibition
Gal4 activity range @ 1 μM (% inhibition) [1]: >80 % inhibition
IC50 [2]: < 1000 nM

NC(=O)Cc1ccc(CNc2ncnc(N3CCCC3c3ccc(O)cc3)c2F)cc1 (stereo not drawn) [Example 300, 2-[4-[[[5-fluoro-6-[2-(4-hydroxyphenyl)pyrrolidin-1-yl]pyrimidin-4-yl]amino]methyl]phenyl]acetamide]
Gal4 activity range @ 0.1 μM (% inhibition) [1]: >20 % inhibition
Gal4 activity range @ 1 μM (% inhibition) [1]: >20 % inhibition
IC50 [2]: < 10000 nM

CCOc1ccc(C2CCCN2c2ncnc(NCc3ccc(CC(N)=O)cc3)c2F)cc1 (stereo not drawn) [Example 301, 2-[4-[[[6-[2-(4-ethoxyphenyl)pyrrolidin-1-yl]-5-fluoro-pyrimidin-4-yl]amino]methyl]phenyl]acetamide]
Gal4 activity range @ 0.1 μM (% inhibition) [1]: >50 % inhibition
Gal4 activity range @ 1 μM (% inhibition) [1]: >80 % inhibition
IC50 [2]: < 500 nM

Cc1ccc(C2CCCN2c2ncnc(NCc3ccc(CC(N)=O)cc3)c2F)cc1 (stereo not drawn) [Example 302, 2-[4-[[[5-fluoro-6-[2-(p-tolyl)pyrrolidin-1-yl]pyrimidin-4-yl]amino]methyl]phenyl]acetamide]
Gal4 activity range @ 0.1 μM (% inhibition) [1]: >20 % inhibition
Gal4 activity range @ 1 μM (% inhibition) [1]: >50 % inhibition
IC50 [2]: < 500 nM

CC(C)c1ccc(C2CCCN2c2ncnc(NCc3ccc(CC(N)=O)cc3)c2F)cc1 (stereo not drawn) [Example 303, 2-[4-[[[5-fluoro-6-[2-(4-isopropylphenyl)pyrrolidin-1-yl]pyrimidin-4-yl]amino]methyl]phenyl]acetamide]
Gal4 activity range @ 0.1 μM (% inhibition) [1]: >80 % inhibition
Gal4 activity range @ 1 μM (% inhibition) [1]: >80 % inhibition
IC50 [2]: < 500 nM

COc1cccc(C2CCCN2c2ncnc(NCc3ccc(CC(N)=O)cc3)c2F)c1 (stereo not drawn) [Example 304, 2-[4-[[[5-fluoro-6-[2-(3-methoxyphenyl)pyrrolidin-1-yl]pyrimidin-4-yl]amino]methyl]phenyl]acetamide]
Gal4 activity range @ 0.1 μM (% inhibition) [1]: >20 % inhibition
Gal4 activity range @ 1 μM (% inhibition) [1]: >80 % inhibition
IC50 [2]: < 500 nM

NC(=O)Cc1ccc(CNc2ncnc(N3CCCC3c3cccc(Br)c3)c2F)cc1 (stereo not drawn) [Example 305, 2-[4-[[[6-[2-(3-bromophenyl)pyrrolidin-1-yl]-5-fluoro-pyrimidin-4-yl]amino]methyl]phenyl]acetamide]
Gal4 activity range @ 0.1 μM (% inhibition) [1]: >50 % inhibition
Gal4 activity range @ 1 μM (% inhibition) [1]: >80 % inhibition
IC50 [2]: < 500 nM

NC(=O)Cc1ccc(CNc2ncnc(N3CCCC3c3cccc(Cl)c3)c2F)cc1 (stereo not drawn) [Example 306, 2-[4-[[[6-[2-(3-chlorophenyl)pyrrolidin-1-yl]-5-fluoro-pyrimidin-4-yl]amino]methyl]phenyl]acetamide]
Gal4 activity range @ 0.1 μM (% inhibition) [1]: >50 % inhibition
Gal4 activity range @ 1 μM (% inhibition) [1]: >80 % inhibition
IC50 [2]: < 500 nM

NC(=O)Cc1ccc(CNc2ncnc(N3CCC3c3ccc(C(F)(F)F)cc3)c2F)cc1 (stereo not drawn) [Example 307, 2-[4-[[[5-fluoro-6-[2-[4-(trifluoromethyl)phenyl]azetidin-1-yl]pyrimidin-4-yl]amino]methyl]phenyl]acetamide]
Gal4 activity range @ 0.1 μM (% inhibition) [1]: >20 % inhibition
Gal4 activity range @ 1 μM (% inhibition) [1]: >50 % inhibition
IC50 [2]: < 2000 nM
